Legend:
[1] = xn = mol fraction of the nth substance listed; settings: 101.3 kPa, Liquid, Vibrating tube method
[2] = molar heat capacity at constant pressure; xn = mol fraction of the nth substance listed; settings: 101.3 kPa, Liquid, Small sample (50 mg) DSC
[3] = excess molar enthalpy (molar enthalpy of mixing); xn = mol fraction of the nth substance listed; settings: 303.15 K, 101.3 kPa, Liquid

CCCCn1cc[n+](C)c1.COS(=O)(=O)[O-] [1-butyl-3-methylimidazolium methyl sulfate] + O
Settings | mass density, [1] [kg/m3] | molar heat capacity at constant pressure, [2] [J/K/mol]
293.15 K, x1 = 0.0213 | 1041.7 | 84.8
293.15 K, x1 = 0.0489 | 1081 | 95.3
293.15 K, x1 = 0.0996 | 1123.8 | 112
293.15 K, x1 = 0.1975 | 1162.3 | 143.8
293.15 K, x1 = 0.2938 | 1180 | 175.2
293.15 K, x1 = 0.3948 | 1190.5 | 207.8
293.15 K, x1 = 0.4809 | 1196.3 | 235.7
293.15 K, x1 = 0.5724 | 1200.7 | 265.9
293.15 K, x1 = 0.6552 | 1203.6 | 293.4
293.15 K, x1 = 0.8002 | 1207.3 | 343.5
293.15 K, x1 = 0.8199 | 1207.7 | –
293.15 K, x1 = 0.9554 | 1210 | 397.9
298.15 K, x1 = 0.0213 | 1039.7 | 84.8
298.15 K, x1 = 0.0489 | 1078.3 | 95.6
298.15 K, x1 = 0.0996 | 1120.5 | 112.6
298.15 K, x1 = 0.1975 | 1158.8 | 144.9
298.15 K, x1 = 0.2938 | 1176.5 | 176.5
298.15 K, x1 = 0.3948 | 1187 | 209.3
298.15 K, x1 = 0.4809 | 1192.9 | 237.3
298.15 K, x1 = 0.5724 | 1197.3 | 267.7
298.15 K, x1 = 0.6552 | 1200.3 | 295.3
298.15 K, x1 = 0.8002 | 1204 | 345.5
298.15 K, x1 = 0.8199 | 1204.3 | –
298.15 K, x1 = 0.9554 | 1206.7 | 400.1
303.15 K, x1 = 0.0213 | 1037.5 | 84.9
303.15 K, x1 = 0.0489 | 1075.4 | 96
303.15 K, x1 = 0.0996 | 1117.1 | 113.3
303.15 K, x1 = 0.1975 | 1155.2 | 146.1
303.15 K, x1 = 0.2938 | 1173 | 177.8
303.15 K, x1 = 0.3948 | 1183.6 | 210.8
303.15 K, x1 = 0.4809 | 1189.5 | 239
303.15 K, x1 = 0.5724 | 1193.9 | 269.5
303.15 K, x1 = 0.6552 | 1196.9 | 297.3
303.15 K, x1 = 0.8002 | 1200.7 | 347.6
303.15 K, x1 = 0.8199 | 1201 | –
303.15 K, x1 = 0.9554 | 1203.4 | 402.3
308.15 K, x1 = 0.0213 | 1035.2 | 84.9
308.15 K, x1 = 0.0489 | 1072.4 | 96.2
308.15 K, x1 = 0.0996 | 1113.6 | 113.9
308.15 K, x1 = 0.1975 | 1151.7 | 147.1
308.15 K, x1 = 0.2938 | 1169.5 | 179
308.15 K, x1 = 0.3948 | 1180.2 | 212.2
308.15 K, x1 = 0.4809 | 1186.1 | 240.5
308.15 K, x1 = 0.5724 | 1190.6 | 271.2
308.15 K, x1 = 0.6552 | 1193.6 | 299.2
308.15 K, x1 = 0.8002 | 1197.4 | 349.7
308.15 K, x1 = 0.8199 | 1197.7 | –
308.15 K, x1 = 0.9554 | 1200.1 | 404.5
313.15 K, x1 = 0.0213 | 1032.7 | 84.9
313.15 K, x1 = 0.0489 | 1069.3 | 96.5
313.15 K, x1 = 0.0996 | 1110.1 | 114.5
313.15 K, x1 = 0.1975 | 1148 | 148.1
313.15 K, x1 = 0.2938 | 1166 | 180.3
313.15 K, x1 = 0.3948 | 1176.7 | 213.6
313.15 K, x1 = 0.4809 | 1182.7 | 242.1
313.15 K, x1 = 0.5724 | 1187.2 | 272.9
313.15 K, x1 = 0.6552 | 1190.3 | 301.2
313.15 K, x1 = 0.8002 | 1194.1 | 351.7
313.15 K, x1 = 0.8199 | 1194.4 | –
313.15 K, x1 = 0.9554 | 1196.8 | 406.7
318.15 K, x1 = 0.0213 | 1030.1 | 85.1
318.15 K, x1 = 0.0489 | 1066.2 | 96.8
318.15 K, x1 = 0.0996 | 1106.6 | 115.2
318.15 K, x1 = 0.1975 | 1144.4 | 149.1
318.15 K, x1 = 0.2938 | 1162.5 | 181.6
318.15 K, x1 = 0.3948 | 1173.3 | 215
318.15 K, x1 = 0.4809 | 1179.3 | 243.7
318.15 K, x1 = 0.5724 | 1183.9 | 274.6
318.15 K, x1 = 0.6552 | 1186.9 | 303.1
318.15 K, x1 = 0.8002 | 1190.8 | 353.8
318.15 K, x1 = 0.8199 | 1191.1 | –
318.15 K, x1 = 0.9554 | 1193.6 | 408.9

[3]
Settings | excess molar enthalpy [kcal/mol]
x1 = 0.0506 | -0.0676
x1 = 0.1003 | -0.0966
x1 = 0.1461 | -0.115
x1 = 0.2018 | -0.125
x1 = 0.299 | -0.128
x1 = 0.4021 | -0.117
x1 = 0.5447 | -0.0987
x1 = 0.6795 | -0.0755
x1 = 0.8434 | -0.0413

CCCCn1cc[n+](C)c1.O=S(=O)([O-])C(F)(F)F [1-butyl-3-methylimidazolium trifluoromethanesulfonate] + O
Settings | mass density, [1] [kg/m3] | molar heat capacity at constant pressure, [2] [J/K/mol]
293.15 K, x1 = 0.0496 | 1119.8 | 98.5
293.15 K, x1 = 0.1012 | 1176.7 | –
293.15 K, x1 = 0.1415 | 1202.8 | 131.9
293.15 K, x1 = 0.197 | 1227.4 | –
293.15 K, x1 = 0.2965 | 1252.5 | –
293.15 K, x1 = 0.3369 | 1259.7 | 200.1
293.15 K, x1 = 0.3873 | 1266.8 | –
293.15 K, x1 = 0.4868 | 1277.3 | 250
293.15 K, x1 = 0.5637 | 1283.2 | 274.4
293.15 K, x1 = 0.6636 | 1289.1 | 307.4
293.15 K, x1 = 0.7124 | 1291.6 | 322.5
293.15 K, x1 = 0.796 | 1295.2 | 350.7
293.15 K, x1 = 0.9017 | 1298.8 | 387.2
293.15 K, x1 = 0.9456 | 1300.1 | –
298.15 K, x1 = 0.0496 | 1116.9 | 98.7
298.15 K, x1 = 0.1012 | 1173.2 | –
298.15 K, x1 = 0.1415 | 1199 | 132.6
298.15 K, x1 = 0.197 | 1223.4 | –
298.15 K, x1 = 0.2965 | 1248.4 | –
298.15 K, x1 = 0.3369 | 1255.6 | 201.3
298.15 K, x1 = 0.3873 | 1262.7 | –
298.15 K, x1 = 0.4868 | 1273.2 | 251.5
298.15 K, x1 = 0.5637 | 1279.1 | 276.1
298.15 K, x1 = 0.6636 | 1285.1 | 309.4
298.15 K, x1 = 0.7124 | 1287.6 | 324.4
298.15 K, x1 = 0.796 | 1291.2 | 352.9
298.15 K, x1 = 0.9017 | 1294.8 | 389.4
298.15 K, x1 = 0.9456 | 1296.1 | –
303.15 K, x1 = 0.0496 | 1113.8 | 98.9
303.15 K, x1 = 0.1012 | 1169.5 | –
303.15 K, x1 = 0.1415 | 1195.1 | 133.3
303.15 K, x1 = 0.197 | 1219.3 | –
303.15 K, x1 = 0.2965 | 1244.3 | –
303.15 K, x1 = 0.3369 | 1251.5 | 202.7
303.15 K, x1 = 0.3873 | 1258.6 | –
303.15 K, x1 = 0.4868 | 1269.1 | 253.2
303.15 K, x1 = 0.5637 | 1275.1 | 277.8
303.15 K, x1 = 0.6636 | 1281.1 | 311.5
303.15 K, x1 = 0.7124 | 1283.6 | 326.4
303.15 K, x1 = 0.796 | 1287.2 | 355.2
303.15 K, x1 = 0.9017 | 1290.9 | 391.8
303.15 K, x1 = 0.9456 | 1292.2 | –
308.15 K, x1 = 0.0496 | 1110.6 | 99.1
308.15 K, x1 = 0.1012 | 1165.7 | –
308.15 K, x1 = 0.1415 | 1191.2 | 134
308.15 K, x1 = 0.197 | 1215.3 | –
308.15 K, x1 = 0.2965 | 1240.2 | –
308.15 K, x1 = 0.3369 | 1247.4 | 204.1
308.15 K, x1 = 0.3873 | 1254.5 | –
308.15 K, x1 = 0.4868 | 1265.1 | 254.9
308.15 K, x1 = 0.5637 | 1271 | 279.7
308.15 K, x1 = 0.6636 | 1277.1 | 313.7
308.15 K, x1 = 0.7124 | 1279.6 | 328.5
308.15 K, x1 = 0.796 | 1283.2 | 357.6
308.15 K, x1 = 0.9017 | 1286.9 | 394.4
308.15 K, x1 = 0.9456 | 1288.2 | –
313.15 K, x1 = 0.0496 | 1107.3 | 99.4
313.15 K, x1 = 0.1012 | 1161.9 | –
313.15 K, x1 = 0.1415 | 1187.1 | 134.8
313.15 K, x1 = 0.197 | 1211.2 | –
313.15 K, x1 = 0.2965 | 1236 | –
313.15 K, x1 = 0.3369 | 1243.3 | 205.5
313.15 K, x1 = 0.3873 | 1250.4 | –
313.15 K, x1 = 0.4868 | 1261 | 256.7
313.15 K, x1 = 0.5637 | 1267 | 281.7
313.15 K, x1 = 0.6636 | 1273.1 | 316.1
313.15 K, x1 = 0.7124 | 1275.6 | 330.7
313.15 K, x1 = 0.796 | 1279.2 | 360.2
313.15 K, x1 = 0.9017 | 1283 | 397
313.15 K, x1 = 0.9456 | 1284.3 | –
318.15 K, x1 = 0.0496 | 1103.9 | 99.7
318.15 K, x1 = 0.1012 | 1158 | –
318.15 K, x1 = 0.1415 | 1183.1 | 135.7
318.15 K, x1 = 0.197 | 1207 | –
318.15 K, x1 = 0.2965 | 1231.9 | –
318.15 K, x1 = 0.3369 | 1239.1 | 207.1
318.15 K, x1 = 0.3873 | 1246.3 | –
318.15 K, x1 = 0.4868 | 1256.9 | 258.7
318.15 K, x1 = 0.5637 | 1263 | 283.7
318.15 K, x1 = 0.6636 | 1269.1 | 318.6
318.15 K, x1 = 0.7124 | 1271.6 | 333.1
318.15 K, x1 = 0.796 | 1275.3 | 362.9
318.15 K, x1 = 0.9017 | 1279 | 399.9
318.15 K, x1 = 0.9456 | 1280.3 | –

[3]
Settings | excess molar enthalpy [kcal/mol]
x1 = 0.1007 | 0.157
x1 = 0.1989 | 0.257
x1 = 0.2954 | 0.312
x1 = 0.3944 | 0.332
x1 = 0.4985 | 0.317
x1 = 0.5757 | 0.293
x1 = 0.6624 | 0.245
x1 = 0.8201 | 0.136

Reference: the NIST ThermoML archive (doi:10.1016/j.jct.2008.10.002)
